Results from ChEMBL document CHEMBL4052759, “Discovery of DS79182026: A potent orally active hepcidin production inhibitor” (Bioorg Med Chem Lett, 2017).

Tests used:
[1] = molecular target: T1, Serine/threonine-protein kinase D2 (Homo sapiens) (UniProt Q9BZL6); assay: Inhibition of PKD2 (unknown origin) at 0.078 uM relative to control
T1 sequence (whole entry): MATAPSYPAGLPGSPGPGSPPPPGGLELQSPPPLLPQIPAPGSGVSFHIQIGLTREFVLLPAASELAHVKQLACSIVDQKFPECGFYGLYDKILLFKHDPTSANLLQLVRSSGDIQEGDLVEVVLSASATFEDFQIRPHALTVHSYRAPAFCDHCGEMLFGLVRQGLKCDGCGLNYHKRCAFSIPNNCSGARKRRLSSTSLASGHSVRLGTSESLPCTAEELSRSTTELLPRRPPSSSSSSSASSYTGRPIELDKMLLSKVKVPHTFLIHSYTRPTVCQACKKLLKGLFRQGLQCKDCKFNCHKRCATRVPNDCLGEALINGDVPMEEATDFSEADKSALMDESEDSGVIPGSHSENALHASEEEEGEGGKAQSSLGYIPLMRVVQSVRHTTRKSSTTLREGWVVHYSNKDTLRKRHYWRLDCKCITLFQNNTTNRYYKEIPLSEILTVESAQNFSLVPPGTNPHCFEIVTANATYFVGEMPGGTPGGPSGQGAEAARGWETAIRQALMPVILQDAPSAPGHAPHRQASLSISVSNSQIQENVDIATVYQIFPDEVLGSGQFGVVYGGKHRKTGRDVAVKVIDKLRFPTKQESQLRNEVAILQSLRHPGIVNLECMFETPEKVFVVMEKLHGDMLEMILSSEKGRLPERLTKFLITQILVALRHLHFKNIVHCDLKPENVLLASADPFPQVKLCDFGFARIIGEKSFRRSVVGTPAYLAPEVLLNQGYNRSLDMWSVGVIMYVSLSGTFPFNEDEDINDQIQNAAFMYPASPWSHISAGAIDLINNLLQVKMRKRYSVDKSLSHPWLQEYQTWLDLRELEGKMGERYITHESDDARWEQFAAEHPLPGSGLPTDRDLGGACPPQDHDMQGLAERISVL

[2] = molecular target: Serine/threonine-protein kinase Chk2 (Homo sapiens) (UniProt O96017); assay: Inhibition of CHK2 (unknown origin) at 0.49 uM relative to control
[3] = molecular target: Dual specificity tyrosine-phosphorylation-regulated kinase 2 (Homo sapiens) (UniProt Q92630); assay: Inhibition of DYRK2 (unknown origin) at 0.49 uM relative to control
[4] = molecular target: Dual specificity protein kinase CLK2 (Homo sapiens) (UniProt P49760); assay: Inhibition of CLK2 (unknown origin) at 0.49 uM relative to control
[5] = molecular target: Tyrosine-protein kinase Yes (Homo sapiens) (UniProt P07947); assay: Inhibition of Yes (unknown origin) at 0.49 uM relative to control
[6] = system: Mitogen-activated protein kinase 14 (Homo sapiens), Q16539 [T106M]; assay: Inhibition of SAPK2a T106M mutant (unknown origin) at 0.49 uM relative to control
[7] = molecular target: Calcium/calmodulin-dependent protein kinase type 1 (Homo sapiens) (UniProt Q14012); assay: Inhibition of CaMK1a (unknown origin) at 0.49 uM relative to control
[8] = molecular target: T2, MAP kinase-activated protein kinase 5 (Homo sapiens) (UniProt Q8IW41); assay: Inhibition of PRAK (unknown origin) at 0.49 uM relative to control
T2 sequence (whole entry): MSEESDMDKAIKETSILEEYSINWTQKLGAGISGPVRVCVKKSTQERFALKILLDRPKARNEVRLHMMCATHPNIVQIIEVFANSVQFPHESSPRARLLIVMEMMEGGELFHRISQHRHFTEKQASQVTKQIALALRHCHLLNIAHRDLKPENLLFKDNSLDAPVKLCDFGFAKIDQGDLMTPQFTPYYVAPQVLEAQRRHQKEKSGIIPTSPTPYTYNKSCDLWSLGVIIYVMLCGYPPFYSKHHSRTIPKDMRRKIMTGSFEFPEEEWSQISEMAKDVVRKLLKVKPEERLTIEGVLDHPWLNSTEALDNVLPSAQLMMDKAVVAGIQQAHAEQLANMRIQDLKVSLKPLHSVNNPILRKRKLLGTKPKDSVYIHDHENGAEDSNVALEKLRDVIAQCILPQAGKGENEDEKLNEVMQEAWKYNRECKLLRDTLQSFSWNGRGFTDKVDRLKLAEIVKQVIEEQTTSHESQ

[9] = molecular target: Epidermal growth factor receptor (Homo sapiens) (UniProt P00533); assay: Inhibition of EGFR (unknown origin) at 0.49 uM relative to control
[10] = molecular target: Macrophage-stimulating protein receptor (Homo sapiens) (UniProt Q04912); assay: Inhibition of MST1R (unknown origin) at 0.49 uM relative to control
[11] = molecular target: Serine/threonine-protein kinase PAK 5 (Homo sapiens) (UniProt Q9P286); assay: Inhibition of PAK5 (unknown origin) at 0.49 uM relative to control
[12] = molecular target: Protein kinase C beta (Homo sapiens) (UniProt P05771); assay: Inhibition of PKC-beta2 (unknown origin) at 0.45 uM relative to control
[13] = molecular target: Calcium/calmodulin-dependent protein kinase type II subunit beta (Homo sapiens) (UniProt Q13554); assay: Inhibition of CAMK2 (unknown origin) at 0.45 uM relative to control
[14] = molecular target: Fibroblast growth factor receptor 4 (Homo sapiens) (UniProt P22455); assay: Inhibition of FGFR4 (unknown origin) at 0.45 uM relative to control
[15] = molecular target: Casein kinase I isoform alpha (Homo sapiens) (UniProt P48729); assay: Inhibition of CSNK1A1 (unknown origin) at 0.45 uM relative to control
[16] = molecular target: Serine/threonine-protein kinase D3 (Homo sapiens) (UniProt O94806); assay: Inhibition of PKD3 (unknown origin) at 0.45 uM relative to control

In the case of `COC(=O)Nc1noc2cc(-c3c(-c4ccccn4)n[nH]c3C)ccc12`, the inhibition [1] is reported as -0.7%.
Molecule `Cc1[nH]nc(C2CC2)c1-c1ccc2c(NC(=O)C3CC3)noc2c1` has an inhibition [2] of 8%, an inhibition [3] of 3.3% and an inhibition [4] of -0.7%. For the same molecule, the inhibition [5] was -8%, the inhibition [6] was -0.3% and the inhibition [7] was 2.3%. The inhibition [8] was -0.3%, the inhibition [9] was -7.3% and the inhibition [10] was -3%. It also gave an inhibition [11] of -1%.
`Cc1n[nH]c(C)c1-c1ccc2c(NC(=O)c3ccc(N4CCN(C)CC4)cc3)n[nH]c2c1` was tested, and the inhibition [12] was 3.7%, the inhibition [13] was 19.7% and the inhibition [14] was 0.7%. For the same molecule, the inhibition [15] was 2.3% and the inhibition [16] was 0.3%.
